Measurements reported in patent US20210214758A1, “METHODS AND TOOLS FOR DETERMINING CLONAL RELATEDNESS AND PREDICTING CLONAL TRAITS” (priority 2018, published 2021).

Each compound was assayed on Klebsiella isolates (assay: Antibiotic susceptibility of Klebsiella clinical isolates per 7-SNP clonotype (Lookup Table 1; disk diffusion)). Settings: CT 000.
Assay type: cell-based, Klebsiella spp.
Method: In further embodiments, the Lookup Table is Lookup Table 1. The information contained in Lookup Table 1 below was obtained from urine specimens from patients with Klebsiella infections from several clinics within different regions of the United States. CT=clonotypes determined using a 7-SNP combination: phoE54; rpoB130; infB279; mdh315; phoE336; phoE354; and mdh429.
Next, antibiotic resistance was determined for all 387 Klebsiella isolates in the discovery set. Antibiotic testing was carried out according to the standard disk diffusion method as described in the Clinical and Laboratory Standards Institute (M100 Performance Standards for Antimicrobial Susceptibility Testing, 27th Edition, 2017). […] Since almost all Klebsiella isolates are known to be resistant to AMP and sensitive to IMI, TET is not used for treatment of urinary tract infections, and ESBL production is partially reflected in resistance to CTR, these antibiotics were not included for further analysis.
To aid in clinical decision-making and to translate clonotype information to treatment selection, Lookup Table 1 was generated. […] The information contained in Lookup Table 1 was obtained from urine specimens from patients with Klebsiella infections from several clinics within different regions of the United States. Indications of allowance or non-recommendation were determined based on a 20% resistance threshold to the indicated antibiotic; i.e., the antibiotic is recommended when more than 80% of the tested isolates within the indicated clonotype were susceptible to the indicated antibiotic, and was cautioned against when less than 80% of the isolates were susceptible to the antibiotic.
For `C[C@@H](O)[C@H]1C(=O)N2C(C(=O)O)=C(SCCN=CN)C[C@H]12` [IMI, imipenem], the “susceptibility, %” value was 100%.

Same assay, conditions: CT 001
`C[C@@H](O)[C@H]1C(=O)N2C(C(=O)O)=C(SCCN=CN)C[C@H]12` [IMI, imipenem] was tested, and the “susceptibility, %” value was 100%.

Same assay, conditions: CT 010
With `C[C@@H](O)[C@H]1C(=O)N2C(C(=O)O)=C(SCCN=CN)C[C@H]12` [IMI, imipenem] the “susceptibility, %” value was 100%.

Same assay, conditions: CT 011
`C[C@@H](O)[C@H]1C(=O)N2C(C(=O)O)=C(SCCN=CN)C[C@H]12` [IMI, imipenem] was tested, and the “susceptibility, %” value was 100%.

Same assay, conditions: CT 031
In the case of `C[C@@H](O)[C@H]1C(=O)N2C(C(=O)O)=C(SCCN=CN)C[C@H]12` [IMI, imipenem], the “susceptibility, %” value is reported as 67%.

Same assay, conditions: CT 040
With `C[C@@H](O)[C@H]1C(=O)N2C(C(=O)O)=C(SCCN=CN)C[C@H]12` [IMI, imipenem] the “susceptibility, %” value was 75%.

Same assay, conditions: CT 050
In the case of `C[C@@H](O)[C@H]1C(=O)N2C(C(=O)O)=C(SCCN=CN)C[C@H]12` [IMI, imipenem], the “susceptibility, %” value is reported as 100%.

Same assay, conditions: CT 051
In the case of `C[C@@H](O)[C@H]1C(=O)N2C(C(=O)O)=C(SCCN=CN)C[C@H]12` [IMI, imipenem], the “susceptibility, %” value is reported as 100%.

Same assay, conditions: CT 071
`C[C@@H](O)[C@H]1C(=O)N2C(C(=O)O)=C(SCCN=CN)C[C@H]12` [IMI, imipenem] was tested, and the “susceptibility, %” value was 100%.

Same assay, conditions: CT 100
In the case of `C[C@@H](O)[C@H]1C(=O)N2C(C(=O)O)=C(SCCN=CN)C[C@H]12` [IMI, imipenem], the “susceptibility, %” value is reported as 100%.

Same assay, conditions: CT 110
With `C[C@@H](O)[C@H]1C(=O)N2C(C(=O)O)=C(SCCN=CN)C[C@H]12` [IMI, imipenem] the “susceptibility, %” value was 100%.

Same assay, conditions: CT 111
`C[C@@H](O)[C@H]1C(=O)N2C(C(=O)O)=C(SCCN=CN)C[C@H]12` [IMI, imipenem] was tested, and the “susceptibility, %” value was 100%.

Same assay, conditions: CT 130
For `C[C@@H](O)[C@H]1C(=O)N2C(C(=O)O)=C(SCCN=CN)C[C@H]12` [IMI, imipenem], the “susceptibility, %” value was 100%.

Same assay, conditions: CT 131
For `C[C@@H](O)[C@H]1C(=O)N2C(C(=O)O)=C(SCCN=CN)C[C@H]12` [IMI, imipenem], the “susceptibility, %” value was 98%.

Same assay, conditions: CT 141
With `C[C@@H](O)[C@H]1C(=O)N2C(C(=O)O)=C(SCCN=CN)C[C@H]12` [IMI, imipenem] the “susceptibility, %” value was 100%.

Same assay, conditions: CT 150
With `C[C@@H](O)[C@H]1C(=O)N2C(C(=O)O)=C(SCCN=CN)C[C@H]12` [IMI, imipenem] the “susceptibility, %” value was 99%.

Same assay, conditions: CT 151
`C[C@@H](O)[C@H]1C(=O)N2C(C(=O)O)=C(SCCN=CN)C[C@H]12` [IMI, imipenem] was tested, and the “susceptibility, %” value was 100%.

Same assay, conditions: CT 160
`C[C@@H](O)[C@H]1C(=O)N2C(C(=O)O)=C(SCCN=CN)C[C@H]12` [IMI, imipenem] was tested, and the “susceptibility, %” value was 100%.

Same assay, conditions: CT 170
In the case of `C[C@@H](O)[C@H]1C(=O)N2C(C(=O)O)=C(SCCN=CN)C[C@H]12` [IMI, imipenem], the “susceptibility, %” value is reported as 96%.

Same assay, conditions: CT 171
For `C[C@@H](O)[C@H]1C(=O)N2C(C(=O)O)=C(SCCN=CN)C[C@H]12` [IMI, imipenem], the “susceptibility, %” value was 97%.

Same assay, conditions: CT 200
`C[C@@H](O)[C@H]1C(=O)N2C(C(=O)O)=C(SCCN=CN)C[C@H]12` [IMI, imipenem] was tested, and the “susceptibility, %” value was 100%.

Same assay, conditions: CT 201
With `C[C@@H](O)[C@H]1C(=O)N2C(C(=O)O)=C(SCCN=CN)C[C@H]12` [IMI, imipenem] the “susceptibility, %” value was 100%.

Same assay, conditions: CT 210
`C[C@@H](O)[C@H]1C(=O)N2C(C(=O)O)=C(SCCN=CN)C[C@H]12` [IMI, imipenem] was tested, and the “susceptibility, %” value was 100%.

Same assay, conditions: CT 211
For `C[C@@H](O)[C@H]1C(=O)N2C(C(=O)O)=C(SCCN=CN)C[C@H]12` [IMI, imipenem], the “susceptibility, %” value was 100%.

Same assay, conditions: CT 230
For `C[C@@H](O)[C@H]1C(=O)N2C(C(=O)O)=C(SCCN=CN)C[C@H]12` [IMI, imipenem], the “susceptibility, %” value was 100%.

Same assay, conditions: CT 231
In the case of `C[C@@H](O)[C@H]1C(=O)N2C(C(=O)O)=C(SCCN=CN)C[C@H]12` [IMI, imipenem], the “susceptibility, %” value is reported as 100%.

Same assay, conditions: CT 240
For `C[C@@H](O)[C@H]1C(=O)N2C(C(=O)O)=C(SCCN=CN)C[C@H]12` [IMI, imipenem], the “susceptibility, %” value was 100%.

Same assay, conditions: CT 241
With `C[C@@H](O)[C@H]1C(=O)N2C(C(=O)O)=C(SCCN=CN)C[C@H]12` [IMI, imipenem] the “susceptibility, %” value was 100%.

Same assay, conditions: CT 250
With `C[C@@H](O)[C@H]1C(=O)N2C(C(=O)O)=C(SCCN=CN)C[C@H]12` [IMI, imipenem] the “susceptibility, %” value was 100%.

Same assay, conditions: CT 251
`C[C@@H](O)[C@H]1C(=O)N2C(C(=O)O)=C(SCCN=CN)C[C@H]12` [IMI, imipenem] was tested, and the “susceptibility, %” value was 100%.

Same assay, conditions: CT 271
With `C[C@@H](O)[C@H]1C(=O)N2C(C(=O)O)=C(SCCN=CN)C[C@H]12` [IMI, imipenem] the “susceptibility, %” value was 100%.

Same assay, conditions: CT 300
With `C[C@@H](O)[C@H]1C(=O)N2C(C(=O)O)=C(SCCN=CN)C[C@H]12` [IMI, imipenem] the “susceptibility, %” value was 100%.
